EC50 data for 23 compounds are collected here from US9561228B2 (Celgene Avilomics Research, Inc., priority 2013, dated 2017).

The subject of the test is ERK1/2 phosphorylation of p90RSK in HT29 cells. In words: pRSK MSD Assay in HT29 cells. Type of test: cell-based. Conditions: Homo sapiens, HT-29, read-out: ERK1/ERK2 PRSK MSD HT29 EC50. Here is the method:
The protocol below describes an assay to measure the kinase activity of ERK1/2 to phosphorylate a substrate, p90RSK, in the presence or absence of a test compound. This experiment was conducted using a Mesoscale Discovery plate. The day before the assay, HT29 cells were split and plated at 50,000 cells/well in complete growth media. After allowing cells to adhere, the media was removed and replaced with media containing 0.1% FBS and incubated overnight. Blank MSD plates (Mesoscale Discovery, Cat # L15XA3) were coated with 25 μl/well RSK capture antibody (BD Biosciences, Cat. #610226) and incubated at 4° C. overnight, then blocked with 150 μl of 3% BSA solution. The next day, the media from the cell culture plate was removed and replaced with 100 μl of media containing a test compound and incubated for 120 minutes at 37° C. The media was removed and replaced with 55 μl per well of lysis buffer with protease inhibitors (Roche Biosciences, Cat. #11836170001) and phosphatase inhibitors (Sigma-Aldrich, Cat. # P-0044 and P-5726), followed by incubation at 4° C. for 30 minutes. 50 μl of lysate was transferred to a blocked MSD plate, followed by incubation at room temperature for 2 hours under constant shaking. The plate was washed 3 times with MSD wash buffer (Mesoscale Discovery, Cat. # R617TX), and 25 μl/well phospho-RSK (pRSK) detection antibody (Cell Signaling Technology, Cat. #9335) was added with Sulfo-tagged detection antibody (Mesoscale Discovery, Cat. # R32AB-1) diluted in 1% BSA in MSD wash buffer. This mixture was incubated for 1 hour at room temperature under constant shaking. The plate was washed 3 times, and 150 μl 1×MSD read buffer was added, followed by signal detection in an MSD plate reader.
Regarding `C=CC(=O)N[C@H]1CCCC1Nc1nc(N[C@H]2CCCN(C(C)=O)C2)ncc1C(F)(F)F` (stereo in doubt) [Compound I-24, N-((1S,2S)-2-((2-(((S)-1-Acetylpiperidin-3-yl)amino)-5-(trifluoromethyl)pyrimidin-4-yl)amino)cyclopentyl)acrylamide], the EC50 is above 1 µM. For `C=CC(=O)Nc1ccccc1Nc1nc(N[C@H]2CCCN(C(=O)OC)C2)ncc1C(F)(F)F` [Compound I-17, (S)-Methyl 3-((4-((2-acrylamidophenyl)amino)-5-(trifluoromethyl)pyrimidin-2-yl)amino) piperidine-1-carboxylate] the value was 0.101 to 0.5 µM; for `CC#CC(=O)Nc1ccccc1Nc1nc(N[C@H]2CCCN(C(=O)CO)C2)ncc1C(F)(F)F` [Compound I-29, (S)—N-(2-((2-((1-(2-Hydroxyacetyl)piperidin-3-yl)amino)-5-(trifluoromethyl)pyrimidin-4-yl)amino)phenyl)but-2-ynamide], above 1 µM. To `CC#CC(=O)N[C@@H]1CCCC[C@H]1Nc1nc(N[C@H]2CCCN(C(=O)CO)C2)ncc1C(F)(F)F` [Compound I-33, N-((1R,2R)-2-((2-(((S)-1-(2-Hydroxyacetyl)piperidin-3-yl)amino)-5-(trifluoromethyl)pyrimidin-4-yl)amino)cyclohexyl)but-2-ynamide] belongs above 1 µM; to `C=CS(=O)(=O)N[C@@H]1CCCC[C@H]1Nc1nc(N[C@H]2CCCN(C(=O)CO)C2)ncc1C(F)(F)F` [Compound I-36, N-((1R,2R)-2-((2-(((S)-1-(2-Hydroxyacetyl)piperidin-3-yl)amino)-5-(trifluoromethyl)pyrimidin-4-yl)amino)cyclohexyl)ethenesulfonamide], 0.501 to 0.999 µM; to `C=CC(=O)Nc1cc(C)ccc1Nc1nc(N[C@H]2CCCN(C(=O)c3ccccc3)C2)ncc1C(F)(F)F` [Compound I-44, (S)—N-(2-((2-((1-Benzoylpiperidin-3-yl)amino)-5-(trifluoromethyl)pyrimidin-4-yl)amino)-5-methylphenyl)acrylamide], above 1 µM.

As to `C=CC(=O)Nc1ccccc1CNc1nc(N[C@H]2CCCN(C(=O)CO)C2)ncc1C(F)(F)F` [Compound I-45, (S)—N-(2-(((2-((1-(2-Hydroxyacetyl)piperidin-3-yl)amino)-5-(trifluoromethyl)pyrimidin-4-yl)amino)methyl)phenyl)acrylamide], the EC50 was above 1 µM. For `C=C(C)S(=O)(=O)Nc1cc(C)ccc1Nc1nc(NC2CCC(=O)CC2)ncc1C(F)(F)F` [Compound I-53, N-(5-Methyl-2-((2-((4-oxocyclohexyl)amino)-5-(trifluoromethyl)pyrimidin-4-yl)amino)phenyl)prop-1-ene-2-sulfonamide] the value was above 1 µM; for `C=C(C)S(=O)(=O)Nc1cc(F)ccc1Nc1nc(N[C@H]2CCCN(C(=O)CO)C2)ncc1C(F)(F)F` [Compound I-54, (S)—N-(5-Fluoro-2-((2-((1-(2-hydroxyacetyl)piperidin-3-yl)amino)-5-(trifluoromethyl)pyrimidin-4-yl)amino)phenyl)prop-1-ene-2-sulfonamide], above 1 µM; for `C=CC(=O)Nc1ccccc1Nc1nc(N[C@@H]2CCN(C(=O)OC)C2)ncc1C(F)(F)F` [Compound I-61, (R)-Methyl 3-((4-((2-Acrylamidophenyl)amino)-5-(trifluoromethyl)pyrimidin-2-yl)amino)pyrrolidine-1-carboxylate], above 1 µM. To `C=CC(=O)Nc1ccccc1Nc1nc(N[C@@H]2CCN(C(=O)CO)C2)ncc1C(F)(F)F` [Compound I-62, (R)—N-(2-((2-((1-(2-Hydroxyacetyl)pyrrolidin-3-yl)amino)-5-(trifluoromethyl)pyrimidin-4-yl)amino)phenyl)acrylamide] belongs above 1 µM.

Regarding `C=CC(=O)Nc1ccccc1Nc1nc(N[C@H]2CCCN(C(=O)C3CC3)C2)ncc1Cl` [Compound I-136, (S)—N-(2-((5-chloro-2-((1-(cyclopropanecarbonyl)piperidin-3-yl)amino)pyrimidin-4-yl)amino)phenyl)acrylamide], the EC50 is 0.501 to 0.999 µM. To `C=CC(=O)Nc1ccccc1Nc1nc(N[C@H]2CCCN(C(=O)C(C)C)C2)ncc1Cl` [Compound I-137, (S)—N-(2-((5-chloro-2-((1-isobutyrylpiperidin-3-yl)amino)pyrimidin-4-yl)amino)phenyl)acrylamide] belongs 0.501 to 0.999 µM; to `C=CC(=O)N(C)c1ccccc1Nc1nc(Nc2cc(C(=O)NOC)ccc2C#N)ncc1Cl` [Compound I-197, 3-((5-chloro-4-((2-(N-methylacrylamido)phenyl)amino)pyrimidin-2-yl)amino)-4-cyano-N-methoxybenzamide], above 1 µM. For the compound `C=C(C)C(=O)Nc1ccccc1Nc1nc(Nc2cc(C(N)=O)ccc2C)ncc1Cl` [Compound I-217, 3-((5-chloro-4-((2-methacrylamidophenyl)amino)pyrimidin-2-yl)amino)-4-methylbenzamide], the EC50 is above 1 µM. To `Cc1ccc(C(N)=O)cc1Nc1ncc(Cl)c(Nc2ccccc2NC(=O)/C=C/CN(C)C)n1` [Compound I-218, (E)-3-((5-chloro-4-((2-(4-(dimethylamino)but-2-enamido)phenyl)amino)pyrimidin-2-yl)amino)-4-methylbenzamide] belongs above 1 µM; to `C/C=C/C(=O)Nc1ccccc1Nc1nc(Nc2cc(C(N)=O)ccc2C)ncc1Cl` [Compound I-219, (E)-3-((4-((2-(but-2-enamido)phenyl)amino)-5-chloropyrimidin-2-yl)amino)-4-methylbenzamide], above 1 µM. To `CC(C)=CC(=O)c1ccccc1Oc1nc(Nc2ccc(F)cc2C)ncc1Cl` [Compound I-222, 1-(2-((5-chloro-2-((4-fluoro-2-methylphenyl)amino)pyrimidin-4-yl)oxy)phenyl)-3-methylbut-2-en-1-one] belongs above 1 µM; to `CC(C)=CC(=O)c1ccccc1Oc1nc(Nc2cc(C(N)=O)ccc2C)ncc1Cl` [Compound I-223, 3-((5-chloro-4-(2-(3-methylbut-2-enoyl)phenoxy)pyrimidin-2-yl)amino)-4-methylbenzamide], above 1 µM.

As for `C=CC(=O)Nc1cc(C)ccc1Nc1nc(Nc2cc(Cl)nc(OC)c2)ncc1Cl` [Compound I-244, N-(2-((5-chloro-2-((2-chloro-6-methoxypyridin-4-yl)amino)pyrimidin-4-yl)amino)-5-methylphenyl)acrylamide], the EC50 was 0.101 to 0.5 µM. Regarding `C=CC(=O)Nc1cc(Cl)ccc1Nc1nc(Nc2cc(Cl)nc(OC)c2)ncc1Cl` [Compound I-247, N-(5-chloro-2-((5-chloro-2-((2-chloro-6-methoxypyridin-4-yl)amino)pyrimidin-4-yl)amino)phenyl)acrylamide], the EC50 was 0.101 to 0.5 µM. For `CC(C)=CC(=O)c1ccccc1Oc1nc(Nc2cc(C(N)=O)ccc2C)ncc1C(N)=O` [Compound I-271, 2-((5-carbamoyl-2-methylphenyl)amino)-4-(2-(3-methylbut-2-enoyl)phenoxy)pyrimidine-5-carboxamide] the value was above 1 µM; for `CC(=O)N1CCC[C@H](Nc2ncc(C(F)(F)F)c(N[C@@H]3[C@H](C(N)=O)[C@H]4C=C[C@@H]3C4)n2)C1` [Compound I-309, (1R,2R,3S,4S)-3-((2-(((S)-1-acetylpiperidin-3-yl)amino)-5-(trifluoromethyl)pyrimidin-4-yl)amino)bicyclo[2.2.1]hept-5-ene-2-carboxamide], above 1 µM.
